“And” between values parts separate entries of the source, which are not always exact repeats. Identical values can stand only once. Like-named read-outs stand apart in the source and are kept apart here.
Legend:
[1] = tested on: haloperidol-induced catalepsy; design: method as in Wang et al., 2017; Robinson et al., 2015; settings: rat; ref Wang et al., 2017; Robinson et al., 2015; cited from earlier work
human A2A AR = target: T1, human A2A AR (Homo sapiens, UniProt P29274); settings: cited from earlier work; for Ki: human (h), 2013, 2007
T1 construct: expressed in transfected cells; host or cells: CHO cells

rat A2A AR = target: T2, rat A2A AR (Rattus norvegicus, UniProt P30543); settings: cited from earlier work
T2 construct: A2A ARs of rat brain striatal membrane preparations; from tissue; host or cells: rat brain striatum membranes

human A2B AR = target: T3, human A2B AR (Homo sapiens, UniProt P29275); settings: cited from earlier work
T3 construct: expressed in transfected cells; host or cells: CHO cells
T3 sequence (P29275 1-332): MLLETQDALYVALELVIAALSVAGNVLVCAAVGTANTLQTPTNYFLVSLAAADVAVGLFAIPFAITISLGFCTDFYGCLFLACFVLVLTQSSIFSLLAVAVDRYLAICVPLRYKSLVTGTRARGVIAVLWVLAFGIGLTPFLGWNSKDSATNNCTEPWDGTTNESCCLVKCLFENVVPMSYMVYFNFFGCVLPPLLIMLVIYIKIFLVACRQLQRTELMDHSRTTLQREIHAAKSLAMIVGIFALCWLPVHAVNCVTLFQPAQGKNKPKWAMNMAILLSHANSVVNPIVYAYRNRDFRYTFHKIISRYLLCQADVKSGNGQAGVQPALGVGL

human A3 AR = target: T4, human A3 AR (Homo sapiens, UniProt P0DMS8); settings: cited from earlier work; for Ki: human (h)
T4 construct: expressed in transfected cells; host or cells: CHO cells
T4 sequence (P0DMS8 1-318): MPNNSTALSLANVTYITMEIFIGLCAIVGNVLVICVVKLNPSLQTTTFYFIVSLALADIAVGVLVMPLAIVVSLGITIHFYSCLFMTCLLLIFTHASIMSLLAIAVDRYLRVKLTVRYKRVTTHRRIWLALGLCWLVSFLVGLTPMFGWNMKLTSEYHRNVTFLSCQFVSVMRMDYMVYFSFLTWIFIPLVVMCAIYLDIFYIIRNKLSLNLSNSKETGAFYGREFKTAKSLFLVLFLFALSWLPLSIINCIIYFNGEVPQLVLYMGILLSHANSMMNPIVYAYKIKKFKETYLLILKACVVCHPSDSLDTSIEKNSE

recombinant human MAO-B = target: T5, recombinant human MAO-B (Homo sapiens, UniProt P27338); settings: human (h), 2013, cited from earlier work
T5 construct: purchased Sigma-Aldrich M7441; host or cells: baculovirus-infected insect cells
T5 sequence (P27338 1-520): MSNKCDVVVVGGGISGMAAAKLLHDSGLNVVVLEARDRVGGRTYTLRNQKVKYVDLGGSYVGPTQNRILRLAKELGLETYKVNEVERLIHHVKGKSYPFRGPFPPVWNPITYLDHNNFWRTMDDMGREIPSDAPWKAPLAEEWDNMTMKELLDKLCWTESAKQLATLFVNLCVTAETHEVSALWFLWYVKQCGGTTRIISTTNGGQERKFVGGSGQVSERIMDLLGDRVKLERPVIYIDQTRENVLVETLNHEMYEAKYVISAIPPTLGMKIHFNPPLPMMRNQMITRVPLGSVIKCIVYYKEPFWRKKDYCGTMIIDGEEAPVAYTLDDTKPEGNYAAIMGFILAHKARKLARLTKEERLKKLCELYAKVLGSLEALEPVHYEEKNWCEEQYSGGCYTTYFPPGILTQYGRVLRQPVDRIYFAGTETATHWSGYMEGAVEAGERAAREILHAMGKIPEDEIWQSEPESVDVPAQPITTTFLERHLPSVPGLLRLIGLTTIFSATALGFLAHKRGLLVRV

rat MAO-B = tested on: rat MAO-B; design: method as in Brunschweiger et al., 2014, 2016; settings: rat (r); Figure 3 and introduction; ref Brunschweiger et al., 2014, 2016; cited from earlier work
human A1 AR = target: T6, human A1 AR (Homo sapiens, UniProt P30542); settings: cited from earlier work
T6 construct: expressed in transfected cells; host or cells: CHO cells
T6 sequence (P30542 1-326): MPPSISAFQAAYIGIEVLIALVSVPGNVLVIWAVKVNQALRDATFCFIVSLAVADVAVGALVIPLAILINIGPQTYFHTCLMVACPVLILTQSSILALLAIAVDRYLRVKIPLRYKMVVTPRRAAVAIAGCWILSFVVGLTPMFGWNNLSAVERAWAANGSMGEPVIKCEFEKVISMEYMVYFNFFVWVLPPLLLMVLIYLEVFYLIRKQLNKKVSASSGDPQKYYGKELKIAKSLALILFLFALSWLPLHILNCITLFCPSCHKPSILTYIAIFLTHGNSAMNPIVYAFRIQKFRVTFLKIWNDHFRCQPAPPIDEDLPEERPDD

recombinant human MAO-A = target: T7, recombinant human MAO-A (Homo sapiens, UniProt P21397); assay: Monoamine oxidase assay (Amplex Red), MAO-A; assay type: biochemical
T7 construct: purchased Sigma-Aldrich M7316; host or cells: baculovirus-infected insect cells
T7 sequence (P21397 1-527): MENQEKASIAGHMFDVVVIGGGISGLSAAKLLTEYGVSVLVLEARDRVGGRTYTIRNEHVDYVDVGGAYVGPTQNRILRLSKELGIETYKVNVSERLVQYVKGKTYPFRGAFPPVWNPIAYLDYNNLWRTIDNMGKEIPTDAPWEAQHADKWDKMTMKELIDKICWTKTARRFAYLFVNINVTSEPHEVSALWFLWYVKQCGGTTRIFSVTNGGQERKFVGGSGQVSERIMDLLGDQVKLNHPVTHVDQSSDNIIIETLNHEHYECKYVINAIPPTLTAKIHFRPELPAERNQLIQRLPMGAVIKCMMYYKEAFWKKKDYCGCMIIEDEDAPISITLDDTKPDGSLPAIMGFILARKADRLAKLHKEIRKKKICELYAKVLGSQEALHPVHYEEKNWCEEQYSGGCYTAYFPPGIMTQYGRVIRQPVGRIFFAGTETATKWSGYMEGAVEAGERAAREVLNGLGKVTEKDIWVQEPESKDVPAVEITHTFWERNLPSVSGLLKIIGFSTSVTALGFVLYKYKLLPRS
How it was run: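 Recombinant human MAO-A and MAO-B, expressed in baculovirus-infected insect cells, were assayed by Amplex Red fluorometric detection. Rat MAO-B inhibition used mitochondria-enriched fractions from male Sprague Dawley rat liver.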

[2] = radioligand, ref Müller et al., 2000

T1 sequence (P29274 whole entry): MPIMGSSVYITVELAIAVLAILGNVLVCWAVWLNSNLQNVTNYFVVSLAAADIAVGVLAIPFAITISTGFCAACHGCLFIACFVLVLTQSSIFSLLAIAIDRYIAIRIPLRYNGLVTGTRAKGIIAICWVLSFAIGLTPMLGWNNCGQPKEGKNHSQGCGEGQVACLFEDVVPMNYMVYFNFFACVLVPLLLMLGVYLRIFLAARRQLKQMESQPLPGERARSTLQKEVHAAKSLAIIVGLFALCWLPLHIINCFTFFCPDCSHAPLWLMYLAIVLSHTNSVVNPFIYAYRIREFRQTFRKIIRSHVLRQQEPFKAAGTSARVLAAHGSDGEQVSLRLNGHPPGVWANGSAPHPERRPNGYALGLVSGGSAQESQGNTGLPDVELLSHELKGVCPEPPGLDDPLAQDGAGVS
T2 sequence (P30543 whole entry): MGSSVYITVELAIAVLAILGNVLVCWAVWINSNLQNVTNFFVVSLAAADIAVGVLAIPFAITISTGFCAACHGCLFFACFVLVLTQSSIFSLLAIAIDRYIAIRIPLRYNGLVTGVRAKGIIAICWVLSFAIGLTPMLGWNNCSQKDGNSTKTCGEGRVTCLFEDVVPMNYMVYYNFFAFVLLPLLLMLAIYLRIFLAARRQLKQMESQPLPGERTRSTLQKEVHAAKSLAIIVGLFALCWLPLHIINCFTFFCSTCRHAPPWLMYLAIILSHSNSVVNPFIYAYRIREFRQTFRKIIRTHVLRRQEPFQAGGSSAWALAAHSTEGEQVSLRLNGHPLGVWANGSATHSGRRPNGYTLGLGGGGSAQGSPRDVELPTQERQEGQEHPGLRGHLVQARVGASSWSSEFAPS

Cc1ccc(-c2cc(-c3cccc(C(=O)N4CCCCC4)c3)nc(N)n2)o1 [Compound 8]
effect in haloperidol-induced catalepsy model [1]: in vivo efficacy

C#CCn1c(=O)c2c(nc(C=Cc3cccc(OC)c3)n2C)n(CCCO)c1=O [[^3H]MSX-2, [^3H]3-(3-hydroxypropyl)-7-methyl-8-(m-methoxystyryl)-1-propargylxanthine]
Kd (human A2A AR; [2]): 0.0073 µM
Kd (rat A2A AR; [2]): 0.008 µM

[^3H]8-(4-[4-(4-chlorophenyl)piperazine-1-sulfonyl]phenyl)-1-propyl-2,3,6,7-tetrahydro-1H-purine-2,6-Dione [[^3H]PSB-603]
Kd (human A2B AR; radioligand, ref Borrmann et al., 2009): 0.00041 µM

O=C(CCCc1ccccc1)Nc1nc2ccccc2c(=O)s1 [Compound 6, N-(4-oxo-4H-3,1-benzothiazin-2-yl)-4-phenylbutanamide]
Ki (human A2B AR; human (h), Figure 2, ref Chen et al., 2002, Stössel et al., 2013): > 1 µM
Ki (human A3 AR; Figure 2, ref Chen et al., 2002, Stössel et al., 2013, Mihara et al., 2007, read-out: A3 (Ki)): > 1 µM

Cn1c(=O)c2c(nc(-c3ccc(C(=O)Nc4ccccc4)cc3)n2C)n(C)c1=O [PX-D-P6]
Ki (human A2A AR; Figure 2 and introduction, ref Chen et al., 2002, Wang et al., 2017, Stössel et al., Mihara et al.): 0.33 µM
effect in haloperidol-induced catalepsy model [1]: anti-cataleptic effects
IC50 (recombinant human MAO-B; Figure 2 and introduction, ref Chen et al., 2002, Pretorius et al., 2008, Wang et al., 2017, Stössel et al.): 0.26 µM and 0.29 µM

[^3H](R)-8-ethyl-4-methyl-2-(phenyl)1,4,7,8-tetrahydro-5H-imidazo[2,1-i]purin-5-one [[^3H]PSB-11]
Kd (human A3 AR; radioligand, ref Müller et al., 2002): 0.0049 µM

Cn1c(=O)c2c(nc3n2CCN(Cc2ccc(Cl)c(Cl)c2)C3)n(C)c1=O [Compound 10b, 8-(3,4-Dichlorobenzyl)-1,3-dimethyl-6,7,8,9-tetrahydropyrazino[2,1-f]purine-2,4(1H,3H)-dione]
Ki (rat A2A AR; rat (r), Figure 3 and introduction, ref Brunschweiger et al., 2014, 2016): 0.322 µM
IC50 (rat MAO-B): 0.26 µM

Cn1c(=O)c2c(nc3n2CCN(Cc2cc(F)c(Cl)cc2Cl)C3)n(C)c1=O [Compound 10a, 8-(2,4-dichloro-5-fluorobenzyl)-1,3-dimethyl-6,7,8,9-tetrahydropyrazino[2,1-f]purine-2,4(1H,3H)-dione]
Ki (human A2A AR; Figure 3 and introduction, ref Drabczynska et al., Koch et al., Brunschweiger et al., 2014, 2016): 0.268 µM
Ki (human A1 AR; human (h), Figure 3 and introduction, ref Drabczynska et al., 2007, Koch et al., 2013, Brunschweiger et al., 2014, 2016, read-out: A1 (Ki)): 0.217 µM
IC50 (recombinant human MAO-B; Figure 3 and introduction, ref Drabczynska et al., 2007, Koch et al., Brunschweiger et al., 2014, 2016): 0.508 µM

Cn1c(=O)c2c(nc(C=Cc3cccc(Cl)c3)n2C)n(C)c1=O [CSC, 8-m-Chlorostyrylcaffeine]
inhibition at 10 µM (recombinant human MAO-A; at 10,000 nM, read-out: % inhibition at indicated concentration, Human MAO-A): 23%
IC50 (recombinant human MAO-A; n = 3, read-out: IC50 ± SEM, Human MAO-A): > 10 µM
Ki (human A3 AR; standard antagonists, ref Müller and Jacobson (2011), Brunschweiger et al. (2014), read-out: Ki, A3 vs. [^3H]PSB-11): > 10 µM
% inhibition of radioligand binding at indicated concentration, A1 vs. [^3H]CCPA (human A1 AR; at 10,000 nM, ref Müller and Jacobson (2011), Brunschweiger et al. (2014)): 14%
Ki (human A1 AR; read-out: Ki, A1 vs. [^3H]CCPA, standard antagonists, ref Müller and Jacobson (2011), Brunschweiger et al. (2014)): > 10 µM
